{"source": "patent US20130210767A1", "about": "“BIOCIDAL COMPOSITION AND METHOD” (Arcis Biotechnology Limited, priority 2010, published 2013)", "origin": "cited, not measured here"}
{"smiles": "CCCCCCCCCCCCCCCCCC[N+](C)(C)CCC[Si](OC)(OC)OC", "note": "[compound of formula (I)]", "values": [{"measurement": "stability in aqueous solution", "setting": "aqueous solution", "result": "limited stability"}, {"measurement": "stability in the presence of methanol", "setting": "in the presence of methanol", "result": "stable"}]}
